Assay results published in US9598387B2 (Southern Research Institute, priority 2012, dated 2017).
Like-named read-outs stand apart in the source and are kept apart here.

Columns and labels:
[1] = target: T1, human D3 dopamine receptor (Homo sapiens (Human), UniProt P35462); assay: Whole Cell Adenylyl Cyclase Assay, D3; type: cell-based; settings: inhibition of forskolin (100 μM) stimulated cAMP, normalized to quinpirole; compound conc ≥10× Ki (per compound); mean ± S.E.M.
Experimental: (§1) The intrinsic activity of the compounds was evaluated by determining their ability to inhibit forskolin-dependent (100 μM) stimulation of adenylyl cyclase activity using a whole cell assay. A whole cell-cyclic AMP accumulation assay was performed with stably transfected HEK cells expressing human D2 or D3 dopamine receptors. This assay is an adaptation of an earlier published method (Su et al., Cyclic Nucleotide Res. 1976, 2, 257-285). Details regarding this method have been published (Chu, W. et al. Bioorg. Med. Chem. 2005, 13, 77-87; Taylor, M. et al. Synapse 2010, 64, 251-266). Confluent (60-80%) HEK cells transfected with recombinant D2-like dopamine receptors were grown in DMEM/10% fetal calf serum containing geneticin in […] flasks. The endogenous ATP pool is radioactively labeled by preincubating the cells in serum-free DMEM/25 mM Hepes medium containing 2 μCi/mL of [2,8-^3H]-adenine (20-Ci/mmol) in a 5% CO2 incubator at 37° C. for 75 min. The radioactive medium was removed by aspiration. Serum-free DMEM (5.6 mL) containing 25 mM HEPES, pH 7.4, and 0.1 mM of the phosphodiesterase inhibitor isobutylmethylxanthine was added to the flask. A […] aliquot of cells was removed and added to 50 μL of forskolin (100 μM) and 50 μL of test drug or quinpirole in DMEM-HEPES. The cells were incubated for 20 min at 37° C. (vortexing every 5 min). The reaction was terminated by the addition of 0.5 mL of 10% trichloroacetic acid (w/v) containing 1.0 mM unlabeled cyclic AMP as a recovery standard. Both the [^3H]-cyclic AMP and the [^3H]-ATP fractions were collected following separation using columns of Dowex AG-50W-X4 and alumina. The final yield of [^3H]-cyclic AMP is corrected for column recovery of unlabeled cyclic AMP determined spectrophotometrically (OD259). The results are reported as percent conversion of [^3H]-ATP into [^3H]-cyclic AMP. The values for the percent inhibition are reported as the actual percent of inhibition of the ^3H-cAMP accumulation relative to the assay performed in the absence of a test compound, minus basal activity. […] The percent maximum response is the value for the inhibition normalized to the value for the full agonist quinpirole.

[2] = target: human D2 dopamine receptors (Homo sapiens (Human), UniProt P14416); assay: Whole Cell Adenylyl Cyclase Assay, D2; type: cell-based; settings: inhibition of forskolin (100 μM) stimulated cAMP, normalized to quinpirole; compound conc ≥10× Ki (per compound); mean ± S.E.M.
Experimental: as §1

[3] = target: human D2-long dopamine receptor (Homo sapiens (Human), UniProt P14416); assay: Radioligand binding (125I-IABN competition), D2; settings: HEK cell membranes expressing human D2-long
Experimental: (§2) The affinities of the target compounds were determined using radioligand binding experiments. […] Competition curves were modeled for a single site. Data from competition dose-response curves were analyzed using Tablecurve program (Jandel). IC50 values were converted to equilibrium dissociation constants (Ki values) using the Cheng and Prusoff correction.

[4] = target: T1, human D3 dopamine receptor; assay: Radioligand binding (125I-IABN competition), D3; settings: for Ki: 125I-IABN competition, HEK cell membranes expressing human D3; for D2/D3 (D3 selectivity ratio, D2 Ki/D3 Ki): calculated D2 Ki/D3 Ki
Experimental: as §2

human D2 receptors = human D2 receptors (Homo sapiens (Human), UniProt P14416); assay: D2 Mitogenesis Functional Assay (3H-thymidine uptake, CHOp-D2 cells); type: cell-based; settings: for Emax at 10 µM: % maximum stimulation vs quinpirole (100%), read-out: D2 Agonist Emax; for Emax at 10 µM / D2 Antagonist Imax: at 10 μM; for D2 Antagonist Imax: inhibition of quinpirole stimulation of mitogenesis; for IC50: read-out: D2 Antagonist IC50
Experimental: (§3) These assays are based on ^3H-thymidine uptake by cells that are proliferating.
CHO cells expressing human D2 receptors (CHOp-D2 cells) were maintained in alpha-MEM with 10% FCS, 0.05% pen-strep, and 200 μg/mL of G418. […] The cells were incubated at 37° C. in alpha-MEM with 10% FCS. After 48-72 hours, the cells were rinsed twice with serum-free alpha-MEM and incubated for 24 hours at 37° C. Serial dilutions of test compounds were made by the Biomek robotics system in serum-free alpha-MEM. In the functional assay for agonism, the medium was removed and replaced with 100 μL of test compound in serum-free alpha-MEM. In the antagonist assay, the serial dilution of the putative antagonist test compound was added in 90 μL (1.1× of final concentration) and 300 nM quinpirole (30 nM final) was added in […]. After another 24-hour incubation at 37° C., 0.25 μCi of [^3H]thymidine in alpha-MEM supplemented with 10% FCS was added to each well and the plates were further incubated for 2 hours at 37° C. The cells were trypsinized by addition of 10× trypsin solution (1% trypsin in calcium-magnesium-free phosphate-buffered saline) and the plates were filtered and counted as usual. Quinpirole was run as an internal control and dopamine was included for comparative purposes. Butaclamol was run as the standard antagonist.

D3R = D3R (Homo sapiens (Human), UniProt P35462); assay: D3 Mitogenesis Functional Assay (3H-thymidine uptake, CHOp-D3 cells); type: cell-based; settings: for Emax at 10 µM: % maximum stimulation vs quinpirole (100%), read-out: D3 Agonist Emax; for D3 Antagonist Imax: inhibition of quinpirole stimulation of mitogenesis; for IC50: read-out: D3 Antagonist IC50
Experimental: as §3
CHO cells expressing human D3 receptors (CHOp-D3 cells) were maintained in alpha-MEM with 10% fetal bovine serum (FBS, Atlas Biologicals), 0.05% pen-strep, and 200 μg/ml of G418. […] The cells are incubated at 37° C. in alpha-MEM with 10% FBS. After 48-72 hours, the cells are rinsed twice with serum-free alpha-MEM and incubated for 24 hours at 37° C. Serial dilutions of test compounds were made by the Biomek robotics system in serum-free alpha-MEM. In the functional assay for agonism, the medium is removed and replaced with 100 μL of test compound in serum-free alpha-MEM. In the antagonist assay, the serial dilution of the putative antagonist test compound was added in 90 μL (1.1× of final concentration) and 300 nM quinpirole (30 nM final) was added in 10 uL. After another 16-hour incubation at 37° C., 0.25 μCi of [^3H]thymidine in alpha-MEM supplemented with 10% FBS was added to each well and the plates were further incubated for 2 hours at 37° C. The cells were trypsinized by addition of 10× trypsin solution (1% trypsin in calcium-magnesium-free phosphate-buffered saline) and the plates were filtered and counted as usual. Quinpirole was run as an internal control and dopamine was included for comparative purposes. Butaclamol was run as the standard antagonist. Data were analyzed using GraphPAD Prism and agonist potency was expressed as EC50 values or % stimulation and antagonist potency was expressed as IC50 values. In these assays, based on the % maximum stimulation as compared to the standard agonist quinpirole (100%) the compounds were classified into following categories: ≧90% full agonist; 70-90% partial to full agonist; <70% partial agonist; 0-20% potential antagonist.

[5] = inhibition of quinpirole (30 nM final) stimulation of mitogenesis

T1 sequence (P35462 whole entry): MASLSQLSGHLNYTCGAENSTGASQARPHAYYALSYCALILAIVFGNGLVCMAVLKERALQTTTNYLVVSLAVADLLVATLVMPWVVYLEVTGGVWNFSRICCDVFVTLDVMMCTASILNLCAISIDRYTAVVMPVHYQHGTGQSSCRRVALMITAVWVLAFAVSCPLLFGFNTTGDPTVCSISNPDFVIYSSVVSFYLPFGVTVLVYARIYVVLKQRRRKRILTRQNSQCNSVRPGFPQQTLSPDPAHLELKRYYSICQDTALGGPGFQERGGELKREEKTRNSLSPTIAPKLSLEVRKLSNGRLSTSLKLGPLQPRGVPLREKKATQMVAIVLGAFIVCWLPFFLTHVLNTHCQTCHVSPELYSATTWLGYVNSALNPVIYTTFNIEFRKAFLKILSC
Sequence of D3R (P35462 whole entry): as above
Sequence of human D2 receptors (P14416 whole entry): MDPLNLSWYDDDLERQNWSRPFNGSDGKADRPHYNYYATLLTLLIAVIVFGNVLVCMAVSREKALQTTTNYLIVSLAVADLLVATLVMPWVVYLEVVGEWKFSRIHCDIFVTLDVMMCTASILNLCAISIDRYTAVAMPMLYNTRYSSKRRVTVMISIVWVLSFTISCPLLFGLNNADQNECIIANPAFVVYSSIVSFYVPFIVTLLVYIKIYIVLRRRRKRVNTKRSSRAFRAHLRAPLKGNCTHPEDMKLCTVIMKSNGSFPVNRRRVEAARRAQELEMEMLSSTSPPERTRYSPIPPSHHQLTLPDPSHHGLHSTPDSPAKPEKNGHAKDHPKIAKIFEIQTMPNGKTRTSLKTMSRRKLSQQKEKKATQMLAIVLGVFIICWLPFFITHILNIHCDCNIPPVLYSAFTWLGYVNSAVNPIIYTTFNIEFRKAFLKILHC
Sequence of human D2 dopamine receptors (P14416 whole entry): as above
Sequence of human D2-long dopamine receptor (P14416 whole entry): as above

| SMILES | D3 Cyclase % Inhibition Normalized [1] | D2 Cyclase % Inhibition Normalized [2] | Ki [3] | Ki [4] | D2/D3 (D3 selectivity ratio, D2 Ki/D3 Ki) [4] | IC50 (human D2 receptors) | IC50 (D3R) | Emax at 10 µM (human D2 receptors) | D2 Antagonist Imax (human D2 receptors) | Emax at 10 µM (D3R) | D3 Antagonist Imax (D3R) | IC50 (human D2 receptors; [5]) | IC50 (D3R; [5]) |
| --- | --- | --- | --- | --- | --- | --- | --- | --- | --- | --- | --- | --- | --- |
| O=C(NCCCCN1CCN(c2ccccc2)CC1)N1CCN(c2ccccc2)CC1 [Compound 1, 4-Phenyl-N-(4-(4-phenylpiperazin-1-yl)butyl)piperazine-1-carboxamide] | 48.3 ± 9.4% | 91.4 ± 2.4% | 124 ± 26.2 nM | 2 ± 0.2 nM | 62 |  |  |  |  |  |  |  |  |
| O=C(NCCCCN1CCN(c2cccc(Cl)c2Cl)CC1)N1CCN(c2ccccc2)CC1 [Compound 3, N-(4-(4-(2,3-Dichlorophenyl)piperazin-1-yl)butyl)-4-phenylpiperazine-1-carboxamide] | 66.4 ± 16.4% | 61.0 ± 4.5% | 21 ± 2.4 nM | 0.39 ± 0.1 nM | 54 | 14.6 ± 5.5 nM | 3.43 ± 0.29 nM | < 20% | 91.0% at 10 μM | < 20% | 93.1% |  |  |
| N#Cc1cc(N2CCN(CCCCNC(=O)N3CCN(c4ccccc4)CC3)CC2)cc(C(F)(F)F)c1 [Compound 4, N-(4-(4-(3-Cyano-5-(trifluoromethyl)phenyl)piperazin-1-yl)butyl)-4-phenylpiperazine-1-carboxamide] | 8.2 ± 4.2% | −9.2 ± 8.3% | 294 ± 59.6 nM | 4.1 ± 1 nM | 72 |  |  |  |  |  |  |  |  |
| Cc1cc(N2CCN(CCCCNC(=O)N3CCN(c4ccccc4)CC3)CC2)nc(C(F)(F)F)n1 [Compound 7, N-(4-(4-(6-Methyl-2-(trifluoromethyl)pyrimidin-4-yl)piperazin-1-yl)butyl)-4-phenylpiperazine-1-carboxamide] | 42.4 ± 8.9% | 30.4 ± 14.6% | 3880 ± 1220 nM | 41.5 ± 9.1 nM | 93 |  |  |  |  |  |  |  |  |
| O=C(NCCCCN1CCN(c2ccnc3ccccc23)CC1)N1CCN(c2ccccc2)CC1 [Compound 11, 4-Phenyl-N-(4-(4-(quinolin-4-yl)piperazin-1-yl)butyl)piperazine-1-carboxamide] | 43.1 ± 9.4% | 24.4 ± 3.8% | 1170 ± 128 nM | 9.8 ± 1.2 nM | 119 |  |  |  |  |  |  |  |  |
| CC(C)(C)c1nc(N2CCN(CCCCNC(=O)c3cn4ccncc4n3)CC2)cc(C(F)(F)F)n1 [Compound 115, N-(4-(4-(2-(tert-Butyl)-6-(trifluoromethyl)pyrimidin-4-yl)piperazin-1-yl)butyl)imidazo[1,2-a]pyrazine-2-carboxamide] | 37.8 ± 5.4% |  | 450 nM | 8 ± 1.6 nM | 56 |  |  | < 20% | 96.6% at 10 μM | < 20% | 94.7% | 420 ± 120 nM | 245 ± 33 nM |

Continued, in another order:

| D3 Cyclase % Inhibition Normalized [1] | D2 Cyclase % Inhibition Normalized [2] | Ki [3] | Ki [4] | D2/D3 (D3 selectivity ratio, D2 Ki/D3 Ki) [4] | IC50 (human D2 receptors) | IC50 (D3R) | SMILES | Emax at 10 µM (human D2 receptors) | D2 Antagonist Imax (human D2 receptors) | Emax at 10 µM (D3R) | D3 Antagonist Imax (D3R) | IC50 (human D2 receptors; [5]) | IC50 (D3R; [5]) |
| --- | --- | --- | --- | --- | --- | --- | --- | --- | --- | --- | --- | --- | --- |
| 20.0 ± 6.2% | 34.0 ± 9.1% | 707 ± 96.2 nM | 8.7 ± 2.2 nM | 81 |  |  | CC(C)(C)c1nc(N2CCN(CCCCNC(=O)N3CCN(c4cccc(C#N)c4)CC3)CC2)cc(C(F)(F)F)n1 [Compound 26, N-(4-(4-(2-(tert-Butyl)-6-(trifluoromethyl)pyrimidin-4-yl)piperazin-1-yl)butyl)-4-(3-cyanophenyl)piperazine-1-carboxamide] |  |  |  |  |  |  |
| 9.1 ± 5.8% | 6.1 ± 7.5% | 455 ± 86 nM | 5.9 ± 1.1 nM | 77 |  |  | CC(C)(C)c1nc(N2CCN(CCCCNC(=O)N3CCN(c4cccnc4)CC3)CC2)cc(C(F)(F)F)n1 [Compound 30, N-(4-(4-(2-(tert-Butyl)-6-(trifluoromethyl)pyrimidin-4-yl)piperazin-1-yl)butyl)-4-(pyridin-3-yl)piperazine-1-carboxamide] |  |  |  |  |  |  |
| 19.8 ± 6.7% | −24.0 ± 7.0% | 778 ± 29.5 nM | 12.2 ± 2 nM | 64 |  |  | CC(C)(C)c1nc(N2CCN(CCCCNC(=O)N3Cc4ccccc4C3)CC2)cc(C(F)(F)F)n1 [Compound 39, N-(4-(4-(2-(tert-Butyl)-6-(trifluoromethyl)pyrimidin-4-yl)piperazin-1-yl)butyl)isoindoline-2-carboxamide] |  |  |  |  |  |  |
| 11.6 ± 3.1% | −5.9 ± 5.4% | 680 ± 135 nM | 7.3 ± 1.6 nM | 93 |  |  | Cc1cc(N2CCN(CCCCNC(=O)N3CCC(n4c(=O)[nH]c5ccccc54)CC3)CC2)nc(C(C)(C)C)n1 [Compound 52, N-(4-(4-(2-(tert-Butyl)-6-methylpyrimidin-4-yl)piperazin-1-yl)butyl)-4-(2-oxo-2,3-dihydro-1H-benzo[d]imidazol-1-yl)piperidine-1-carboxamide] |  |  |  |  |  |  |
